In general, EC50 refers to the concentration that produces a half-maximal response.

The values below come from US9908872B2, “Methods to treat lymphoplasmacytic lymphoma” (Dana-Farber Cancer Institute, Inc., priority 2013, dated 2018).

One assay has as its system BCWM.1. In words: CellTiter-Glo cell viability assay. It is filed as cell-based. To be noted: 72 hours, cell survival. How it is done:
(§1) CellTiter-Glo® Luminescent cell viability assay (Promega) was used to assess cell survival following treatment with the compounds described. Cells were seeded into 384 well plates with the EL406 Combination Washer Dispenser (BioTek Instruments, Inc.), and the compounds were injected into the cells culture media with the JANUS Automated Workstation (PerkinElmer Inc.). Cells were treated with a series diluted inhibitors (20˜0.04 μM) for 72 hours at 37° C. Luminescent measurement is performed using the 2104 Envision® Multilabel Reader (PerkinElmer Inc.).
In general terms: In ATP-based viability assays light output follows the ATP content of the culture.

The subject of a further assay is MWCL-1. Description: CellTiter-Glo cell viability assay. To be noted: 72 hours, cell survival. It counts as cell-based. The method, then:
as §1

For a further assay, the system named is OCI-Ly3. In words: CellTiter-Glo cell viability assay. It is filed as cell-based. To be noted: Homo sapiens, 72 hours, cell survival. How it is done: as §1
The subject of another assay is RPCIWM-1. In words: CellTiter-Glo cell viability assay. It counts as cell-based. The following applies: 72 hours, cell survival. How it is done: as §1
The test system of the next assay is Ramos. In words: CellTiter-Glo cell viability assay. It is filed as cell-based. The following applies: 72 hours, cell survival. How it is done:
as §1

A further assay relates to ABL, ARG. In words: KiNativ profiling, A375 cells. It is filed as binding, Homo sapiens. The following applies: 1 μM, labeling site Activation Loop.
The test system of the next assay is AMPKa1, AMPKa2. Description: KiNativ profiling, A375 cells. To be noted: 1 μM, labeling site Lys1. It counts as binding, Homo sapiens.
Assay [1] deals with CaMK2a, CaMK2b, CaMK2d, CaMK2g. In words: KiNativ profiling, A375 cells. It counts as binding, Homo sapiens. The following applies: 1 μM, labeling site Lys2.
A further assay deals with CDK11, CDK8. Description: KiNativ profiling, A375 cells. The following applies: 1 μM, labeling site Lys2. It is filed as binding, Homo sapiens.
The test system of another assay is FYN, SRC, YES. In words: KiNativ profiling, A375 cells. It is filed as binding, Homo sapiens. To be noted: 1 μM, labeling site Activation Loop.
For a further assay, the system named is IKKe, TBK1. In words: KiNativ profiling, A375 cells. It counts as binding, Homo sapiens. The following applies: 1 μM, labeling site Lys2.
The next assay has as its system JNK1, JNK2, JNK3. Description: KiNativ profiling, A375 cells. The following applies: 1 μM, labeling site Lys2. It counts as binding, Homo sapiens.
A further assay deals with LYN. It is filed as binding, Homo sapiens.
The next assay has as its system MAP2K1, MAP2K2. Description: KiNativ profiling, A375 cells. It counts as binding, Homo sapiens. To be noted: 1 μM, labeling site Lys2.
A further assay has as its system MAP3K2, MAP3K3. Description: KiNativ profiling, A375 cells. It is filed as binding, Homo sapiens. The following applies: 1 μM, labeling site Lys2.
For the next assay, the system named is MARK1, MARK2. Description: KiNativ profiling, A375 cells. It is filed as binding, Homo sapiens. The following applies: 1 μM, labeling site Lys1.
A further assay deals with MARK2, MARK3. Description: KiNativ profiling, A375 cells. The following applies: 1 μM, labeling site Lys2. It counts as binding, Homo sapiens.
The next assay concerns MST4, YSK1. In words: KiNativ profiling, A375 cells. It counts as binding, Homo sapiens. To be noted: 1 μM, labeling site Lys2.
A further assay deals with NEK6, NEK7. In words: KiNativ profiling, A375 cells. To be noted: 1 μM, labeling site Lys2. It counts as binding, Homo sapiens.
A further assay has as its system p38d, p38g. In words: KiNativ profiling, A375 cells. It is filed as binding, Homo sapiens. To be noted: 1 μM, labeling site Lys2.
Another assay deals with PITSLRE. In words: KiNativ profiling, A375 cells. It is filed as binding, Homo sapiens. To be noted: 1 μM, labeling site Lys2.
Another assay deals with PKD1, PKD2. In words: KiNativ profiling, A375 cells. It is filed as binding, Homo sapiens. To be noted: 1 μM, labeling site Lys2.
For another assay, the system named is ROCK1, ROCK2. Description: KiNativ profiling, A375 cells. It is filed as binding, Homo sapiens. To be noted: 1 μM, labeling site Lys2.
In the next assay the test system is TAO1, TAO3. Description: KiNativ profiling, A375 cells. It counts as binding, Homo sapiens. The following applies: 1 μM, labeling site Lys2.
The next assay relates to ZAK. It counts as binding, Homo sapiens.
Assay [2] has as its system ZC1/HGK, ZC2/TNIK, ZC3/MINK. In words: KiNativ profiling, A375 cells. The following applies: 1 μM, labeling site Lys2. It counts as binding, Homo sapiens.
The test system of the next assay is OCI-Ly19. In words: CellTiter-Glo cell viability assay. It counts as cell-based. To be noted: 72 hours, cell survival. The method, then:
as §1

Several values for one entry are separate records, joined by “and”; a condition that tells them apart may be missing. Identical values can stand only once.

In the case of `CCN1CCN(Cc2ccc(NC(=O)c3ccc(Cl)c(NC(=O)c4cncc(-c5cccs5)c4)c3)cc2C(F)(F)F)CC1` [I-2, N-(2-chloro-5-((4-((4-ethylpiperazin-1-yl)methyl)-3-(trifluoromethyl)phenyl)carbamoyl)phenyl)-5-(thiophen-2-yl)nicotinamide], the EC50 with BCWM.1 (BCWM1) was 12 nM; in the assay on MWCL-1, 16 nM; with OCI-Ly3 it was 161 nM; with RPCIWM-1, 110 nM; in the assay on Ramos (Homo sapiens, Ramos) it was 60 nM.

Turning to `Cc1ccc(C(=O)Nc2cccc(C(C)(C)C#N)c2)cc1NC(=O)c1cncc(-c2cccs2)c1` [I-6, N-(5-((3-(2-cyanopropan-2-yl)phenyl)carbamoyl)-2-methylphenyl)-5-(thiophen-2-yl)nicotinamide], the “KiNativ inhibition of ABL, ARG” value in the assay with ABL, ARG was over 90%. For the same molecule, the “KiNativ inhibition of AMPKa1, AMPKa2” value in the assay on AMPKa1, AMPKa2 came out at 15.3%. The “KiNativ inhibition of CaMK2a, CaMK2b, CaMK2d, CaMK2g” value in assay [1] was 0.7%. The “KiNativ inhibition of CDK11, CDK8” value in the assay on CDK11, CDK8 is on record as 20.7%. Further, the “KiNativ inhibition of FYN, SRC, YES” value with FYN, SRC, YES stood at 55.7%. Moreover, in the assay on IKKe, TBK1, the “KiNativ inhibition of IKKe, TBK1” value came out at 24.8%. Moreover, the “KiNativ inhibition of JNK1, JNK2, JNK3” value with JNK1, JNK2, JNK3 was 11.7%. Besides, in the assay with LYN, the “KiNativ inhibition of LYN” value is recorded as 87.6%. For the same molecule, in the assay with MAP2K1, MAP2K2, the “KiNativ inhibition of MAP2K1, MAP2K2” value worked out at 4.1%. For the same molecule, the “KiNativ inhibition of MAP3K2, MAP3K3” value in the assay on MAP3K2, MAP3K3 was -15.3%. Moreover, the “KiNativ inhibition of MARK1, MARK2” value with MARK1, MARK2 is reported as -4.9%. The “KiNativ inhibition of MARK2, MARK3” value with MARK2, MARK3 is recorded as 17.2%. In the assay with MST4, YSK1, the “KiNativ inhibition of MST4, YSK1” value is 22%. The “KiNativ inhibition of NEK6, NEK7” value with NEK6, NEK7 was -3.7%. For the same molecule, the “KiNativ inhibition of p38d, p38g” value with p38d, p38g is listed as 17.8%. In addition, the “KiNativ inhibition of PITSLRE” value in the assay on PITSLRE came to 1.9%. Moreover, the “KiNativ inhibition of PKD1, PKD2” value in the assay on PKD1, PKD2 is on record as -2.5%. Further, in the assay on ROCK1, ROCK2, the “KiNativ inhibition of ROCK1, ROCK2” value is given as 12.7%. Besides, the “KiNativ inhibition of TAO1, TAO3” value with TAO1, TAO3 is 11.9%. Also, the “KiNativ inhibition of ZAK” value in the assay with ZAK is on record as over 95%. Further, in [2], the “KiNativ inhibition of ZC1/HGK, ZC2/TNIK, ZC3/MINK” value is reported as 27%.

As for `CCN1CCN(Cc2ccc(NC(=O)c3ccc(C)c(NC(=O)c4cncc(-c5cnn(C)c5)c4)c3)cc2C(F)(F)F)CC1` [I-9], the 50% effective concentration (EC50) in the assay with BCWM.1 is 542 nM and 305 nM; with MWCL-1, 294 nM and 281 nM; in the assay on OCI-Ly19, 2650 nM; with Ramos, 7470 nM.

Take `CCN1CCN(Cc2ccc(NC(=O)c3ccc(C)c(NC(=O)c4cncc(-c5cnoc5)c4)c3)cc2C(F)(F)F)CC1` [I-8]: the figures for the EC50 in the assay with OCI-Ly19 and in the assay with Ramos were 56 nM and 329 nM, respectively.
